Assay results reported in patent US20250134890A1, “ANTIMALARIAL HEXAHYDROPYRIMIDINE ANALOGUES” (UCB BIOPHARMA SRL, priority 2022, published 2025).
pIC50: −log10 of the molar value. Structures can show the parent of a compound that is named as a salt.

Each molecule was assayed on Plasmodium falciparum: 3D7 strain (assay: P. falciparum 3D7 asexual blood stage assay (SYBR green readout)). Details: Plasmodium falciparum, 3D7, Erythrocyte, 72 h, P. falciparum 3D7 in human erythrocytes, 72 h incubation, SYBR green fluorescence.
Format: cell-based
Excerpt: The compounds of the present invention are potent inhibitors of the growth and propagation of the Plasmodium falciparum parasite in human blood.
The assay used to measure the effect of test compounds on a bloodstream stage of Plasmodium falciparum: 3D7 strain employs SYBR green as the readout. This is a dye that binds to double stranded deoxyribonucleic acid (DNA) with a resulting increase in fluorescence, allowing detection of P. falciparum DNA in infected erythrocytes, and thereby providing a measure of parasite growth and propagation.
Erythrocytes (A+blood) were prepared for both parasite culture and assay by washing 4 times with incomplete media (15.9 g RPMI 1640 (25 mM HEPES, L-glutamine), 1 g NaHCO3, 2 g glucose, 400 μL gentacin (500 mg/mL), 2 mL hypoxanthine solution (13.6 g/L in 0.1M NaOH pH 7.3) in 1 litre of media). The cells were centrifuged at 1800 g for 5 minutes, before decanting the supernatant and re-suspending in fresh incomplete media. On the final wash, the cells were re-suspended in complete media (incomplete media with 5 g/L AlbumaxII), and centrifuged at 1800 g for 3 minutes. This cell sediment was treated as 100% haematocrit.
P. falciparum 3D7 was cultured in erythrocytes at 5% haematocrit in complete media at 37° C. (1% O2, 3% CO2, balance N2). Cultures were split on a weekly basis to achieve a 1% parasitaemia in erythrocites at 5% haematocrit in fresh media. Culture media is replaced by fresh media every other day (2 times during the week).
On day 1, test compounds were added to assay plates using Echo dispensing technology ([…] and 20 points titration). 50 nL of each compound dilution was added to 50 μL of culture (5% haematocrit, 0.5% parasitaemia) and incubated for 72 h at 37° C. (1% O2, 3% CO2, balance N2). Final concentrations of test compounds ranged from 50,000 nM to 15 nM, in […].
On day 4, 10 μL SYBR green (Invitrogen S7563 supplied as 10,000×concentrate in DMSO) pre-diluted to 3×concentrate with Lysis buffer (20 mM Tris pH 7.9, 5% EDTA, 0.16% w/v, 1.6% TX100 v/v) was added to the cultures and incubated in the dark, overnight, at room temperature.
On day 5, fluorescent signal was measured using a BioTek plate reader (excitation 485 nm, emission 528 nm). All data were processed using IDBS ActivityBase. Raw data were converted into percent inhibition through linear regression by setting the high inhibition control (mefloquine) as 100% and the no inhibition control (DMSO) as 0%. Quality control criteria for passing plates were as follows: Z′>0.5, S:B>3, % CV(no inhibition control)<15. The formula used to calculate Z′ is: […]
All EC50 curve fitting was undertaken using the following bi-phasic two site dose response using XLfit model 300 (IDBS):
where A=100 minus the top of the upper curve 1 and the bottom of lower curve; B=Hill slope; log(C)=IC50 concentration at lower site; log(D)=IC50 concentration at upper site; x=inhibitor concentration; and y=% inhibition.

Row | Structure (SMILES) | pIC50
1 | C[C@H]1C[C@H](N2C(=N)N[C@](C)(c3cccc(-c4ccc(OC(F)(F)F)nc4)c3Cl)CC2=O)CCS1(=O)=O (relative stereo) [Example 80, (6S)-6-{2-Chloro-3-[6-(trifluoro-methoxy)pyridin-3-yl]phenyl}-2-imino-6-methyl-3-[(2S*,4R*)-2-methyl-1,1-dioxothian-4-yl]-hexahydropyrimidin-4-one hydrochloride] | 5.77
2 | C[C@@H]1C[C@@H](N2C(=N)N[C@](C)(c3cccc(-c4ccc(OC(F)(F)F)nc4)c3Cl)CC2=O)CCS1(=O)=O (relative stereo) [Example 81, (6S)-6-{2-Chloro-3-[6-(trifluoro-methoxy)pyridin-3-yl]phenyl}-2-imino-6-methyl-3-[(2R*,4S*)-2-methyl-1,1-dioxothian-4-yl]-hexahydropyrimidin-4-one hydrochloride] | 6.38
3 | C[C@H]1C[C@@H](N2C(=N)N[C@](C)(c3cccc(-c4cncc(Cl)c4)c3Cl)CC2=O)CC[C@H]1O (relative stereo) [Example 82, (6S)-6-[2-Chloro-3-(5-chloro-pyridin-3-yl)phenyl]-3-[(1S*,3S*,4R*)-4-hydroxy-3-methylcyclohexyl]-2-imino-6-methylhexahydropyrimidin-4-one hydrochloride] | 6.58
4 | C[C@@H]1C[C@H](N2C(=N)N[C@](C)(c3cccc(-c4cncc(Cl)c4)c3Cl)CC2=O)CC[C@@H]1O (relative stereo) [Example 83, (6S)-6-[2-Chloro-3-(5-chloro-pyridin-3-yl)phenyl]-3-[(1R*,3R*,4S*)-4-hydroxy-3-methylcyclohexyl]-2-imino-6-methylhexahydropyrimidin-4-one hydrochloride] | 7.28
5 | C[C@@]1(c2cccc(-c3cnn(CC(F)(F)F)c3)c2Cl)CC(=O)N([C@@H]2CCC(F)(F)[C@H](O)C2)C(=N)N1 (relative stereo) [Example 84, (6S)-6-{2-Chloro-3-[1-(2,2,2-trifluoroethyl)pyrazol-4-yl]phenyl}-3-[(1R*,3R*)-4,4-difluoro-3-hydroxycyclohexyl]-2-imino-6-methylhexahydropyrimidin-4-one hydrochloride] | 6.47
6 | C[C@@]1(c2cccc(-c3cnn(CC(F)(F)F)c3)c2Cl)CC(=O)N([C@H]2CCC(F)(F)[C@@H](O)C2)C(=N)N1 (relative stereo) [Example 85, (6S)-6-{2-Chloro-3-[1-(2,2,2-trifluoroethyl)pyrazol-4-yl]phenyl}-3-[(1S*,3S*)-4,4-difluoro-3-hydroxycyclohexyl]-2-imino-6-methylhexahydropyrimidin-4-one hydrochloride] | 5.57
7 | C[C@@]1(c2cccc(-c3cc(C4CC4)no3)c2Cl)CC(=O)N([C@@H]2CCC(F)(F)[C@H](O)C2)C(=N)N1 (relative stereo) [Example 86, (6S)-6-[2-Chloro-3-(3-cyclopropyl-isoxazol-5-yl)phenyl]-3-[(1R*,3R*)-4,4-difluoro-3-hydroxy-cyclohexyl]-2-imino-6-methyl-hexahydropyrimidin-4-one hydrochloride] | 6.54
8 | C[C@@]1(c2cccc(-c3cc(C4CC4)no3)c2Cl)CC(=O)N([C@H]2CCC(F)(F)[C@@H](O)C2)C(=N)N1 (relative stereo) [Example 87, (6S)-6-[2-Chloro-3-(3-cyclopropyl-isoxazol-5-yl)phenyl]-3-[(1S*,3S*)-4,4-difluoro-3-hydroxycyclohexyl]-2-imino-6-methylhexahydro-pyrimidin-4-one hydrochloride] | 5.54
9 | C[C@@]1(c2cccc(-c3cccc(Cl)c3)c2Cl)CC(=O)N([C@H]2CCOC[C@@H]2O)C(=N)N1 (relative stereo) [Example 95, (6S)-6-[2-Chloro-3-(3-chloro-phenyl)phenyl]-3-[(3R*,4S*)-3-hydroxytetrahydropyran-4-yl]-2-imino-6-methylhexahydro-pyrimidin-4-one hydrochloride] | 6.49
10 | C[C@@]1(c2cccc(-c3cccc(Cl)c3)c2Cl)CC(=O)N([C@@H]2CCOC[C@H]2O)C(=N)N1 (relative stereo) [Example 96, (6S)-6-[2-Chloro-3-(3-chloro-phenyl)phenyl]-3-[(3S*,4R*)-3-hydroxytetrahydropyran-4-yl]-2-imino-6-methylhexahydro-pyrimidin-4-one hydrochloride] | 5.84
11 | C[C@@]1(c2cccc(-c3ccc(F)cc3F)c2Cl)CC(=O)N([C@@H]2CCC(F)(F)[C@H](O)C2)C(=N)N1 (relative stereo) [Example 97, (6S)-6-[2-Chloro-3-(2,4-difluoro-phenyl)phenyl]-3-[(1R*,3R*)-4,4-difluoro-3-hydroxycyclohexyl]-2-imino-6-methylhexahydro-pyrimidin-4-one hydrochloride] | 6.55
12 | C[C@@]1(c2cccc(-c3ccc(C4CC4)nc3)c2Cl)CC(=O)N([C@@H]2CCC(F)(F)[C@H](O)C2)C(=N)N1 (relative stereo) [Example 98, (6S)-6-[2-Chloro-3-(6-cyclopropyl-pyridin-3-yl)phenyl]-3-[(1R*,3R*)-4,4-difluoro-3-hydroxycyclohexyl]-2-imino-6-methylhexahydro-pyrimidin-4-one hydrochloride] | 6.53
13 | C[C@@]1(c2cccc(-c3ccc(C4CC4)nc3)c2Cl)CC(=O)N([C@H]2CCC(F)(F)[C@@H](O)C2)C(=N)N1 (relative stereo) [Example 99, (6S)-6-[2-Chloro-3-(6-cyclopropyl-pyridin-3-yl)phenyl]-3-[(1S*,3S*)-4,4-difluoro-3-hydroxycyclohexyl]-2-imino-6-methylhexahydro-pyrimidin-4-one hydrochloride] | 5.71
14 | C[C@H]1C[C@@H](N2C(=N)N[C@](C)(c3cccc(-c4cccc(Cl)c4)c3Cl)CC2=O)CCN1 (relative stereo) [Example 100, (6S)-6-[2-Chloro-3-(3-chloro-phenyl)phenyl]-2-imino-6-methyl-3-[(2S*,4S*)-2-methylpiperidin-4-yl]hexahydropyrimidin-4-one hydrochloride] | 6.43
15 | C[C@@H]1C[C@H](N2C(=N)N[C@](C)(c3cccc(-c4cccc(Cl)c4)c3Cl)CC2=O)CCN1 (relative stereo) [Example 101, (6S)-6-[2-Chloro-3-(3-chloro-phenyl)phenyl]-2-imino-6-methyl-3-[(2R*,4R*)-2-methylpiperidin-4-yl]hexahydropyrimidin-4-one hydrochloride] | 6.41
16 | C[C@H]1C[C@@H](N2C(=N)N[C@](C)(c3cccc(-c4ccc(F)cc4F)c3Cl)CC2=O)CCN1 (relative stereo) [Example 102, (6S)-6-[2-Chloro-3-(2,4-difluoro-phenyl)phenyl]-2-imino-6-methyl-3-[(2S*,4S*)-2-methylpiperidin-4-yl]hexahydropyrimidin-4-one hydrochloride] | 6.30
17 | C[C@@H]1C[C@H](N2C(=N)N[C@](C)(c3cccc(-c4ccc(F)cc4F)c3Cl)CC2=O)CCN1 (relative stereo) [Example 103, (6S)-6-[2-Chloro-3-(2,4-difluoro-phenyl)phenyl]-2-imino-6-methyl-3-[(2R*,4R*)-2-methylpiperidin-4-yl]hexahydropyrimidin-4-one hydrochloride] | 6.13
18 | C[C@@H]1C[C@H](N2C(=N)N[C@](C)(c3cccc(-c4cccc(Cl)c4)c3Cl)CC2=O)CC[C@H]1O (relative stereo) [Example 104, (6S)-6-[2-Chloro-3-(3-chloro-phenyl)phenyl]-3-[(1S*,3S*,4S*)-4-hydroxy-3-methylcyclohexyl]-2-imino-6-methylhexahydro-pyrimidin-4-one hydrochloride] | 5.31
19 | C[C@H]1C[C@@H](N2C(=N)N[C@](C)(c3cccc(-c4cccc(Cl)c4)c3Cl)CC2=O)CC[C@@H]1O (relative stereo) [Example 105, (6S)-6-[2-Chloro-3-(3-chloro-phenyl)phenyl]-3-[(1R*,3R*,4R*)-4-hydroxy-3-methylcyclohexyl]-2-imino-6-methylhexahydro-pyrimidin-4-one hydrochloride] | 5.81
